Laboratory results from US9695192B2, “Fused heterocyclic compounds as ion channel modulators” (GILEAD SCIENCES, INC., priority 2011, dated 2017).
Like-named read-outs stand apart in the source and are kept apart here.

Legend:
[1] = biological target: wild-type human cardiac sodium channel, hNav1.5 (Homo sapiens, UniProt Q14524); experiment: Late INa screening assay (QPatch whole cell patch clamp, tefluthrin-enhanced late sodium current); assay type: cell-based; details: HEK293 hNav1.5, late INa activated with 10 μM Tefluthrin
Procedure: The late sodium current (Late INa) and peak sodium current (Peak INa) assays are performed on an automated electrophysiology platform, QPatch 16X (Sophion Bioscience, Copenhagen, Denmark), which uses the whole cell patch clamp technique to measure currents through the cell membrane of up to 16 cells at a time. The assay uses an HEK293 (human embryonic kidney) cell line heterologously expressing the wild-type human cardiac sodium channel, hNav1.5, purchased from Millipore (Billerica, Mass.). No beta subunits were coexpressed with the Na channel alpha subunit. Cells are maintained with standard tissue culture procedures and stable channel expression is maintained with 400 μg/mL Geneticin in the culture medium. Cells isolated for use on QPatch are incubated for 5 minutes in Detachin 1X (Genlantis, San Diego, USA) at 37° C. to ensure that 80-90% of the cells are single and not part of a cell cluster. Experiments are carried out at 23-25° C.
For both the Late INa and Peak INa assays, series resistance compensation is set to 100% and series resistance and whole-cell compensation are performed automatically. Currents are digitized at 25 kHz and low-pass filtered at 12 kHz and 10 kHz for the late and peak INa assays, respectively. Currents through open sodium channels are automatically recorded and stored in the Sophion Bioscience Oracle database (Sophion Bioscience, Copenhagen, Denmark). Analysis is performed using QPatch Assay and database software and data are compiled in Excel.
Compound stocks are routinely made by the Gilead Sample Bank in plastic vials to 10 mM in dimethyl sulfoxide (DMSO). In some cases, when compounds are not soluble in DMSO, they are made in 100% ethanol. Stocks are sonicated as necessary. The extracellular solution for screening Late INa is composed of: 140 mM NaCl, 4 mM KCl, 1.8 mM CaCl2, 0.75 mM MgCl2 and 5 mM HEPES with pH adjusted to 7.4 using NaOH. The intracellular solution used to perfuse the inside of the cells for both the Late INa and Peak INa assays contains: 120 mM CsF, 20 mM CsCl, 5 mM EGTA, 5 mM HEPES and pH adjusted to 7.4 with CsOH. Compounds are diluted in extracellular solution to 1 μM in glass vials and then transferred to glass well plates before robotic addition to the cells. A 0 mM Na extracellular solution (0 Na-ECF) is used at the end of each experiment for the Late INa and Peak INa assays to measure baseline current contains: 140 mM N-methyl-D-glucamine; 4 mM KCl; 1.8 mM CaCl2; 0.75 mM MgCl2; 5 mM HEPES and pH was adjusted to 7.4 with HCl.
For the hNav1.5 Late INa assay, sodium channels are activated every 10 seconds (0.1 Hz) by depolarizing the cell membrane to −20 mV for 250 milliseconds (ms) from a holding potential of −120 mV. In response to a −20 mV voltage step, typical hNav1.5 sodium currents activate rapidly to a peak negative current and then inactivate nearly completely within 3-4 ms.
Compounds were tested to determine their activity in blocking the late sodium current. Late INa was generated by adding 10 μM Tefluthrin (pyrethroid) to the extracellular solution while recording Na currents. To confirm the block of late INa observed using the automated screening method, a second late INa enhancer (ATX-II) and the manual patch clamp method were used. ATX-II and tefluthrin occupy distinct, non-overlapping binding sites and modify Na^+ channel function differently to increase late INa. Compounds tested have been found generally to inhibit the enhanced late INa caused by either late INa enhancer. For the purposes of the screening, late INa is defined as the mean current between 225 ms and 250 ms after stepping to −20 mV to activate Na channels. After establishing the whole cell recording configuration, late INa activator is added to each well 4 times over a 16-17 minute period so that the late component of the Na current reaches a stable value. Compounds were then added (typically at 1 μM), in the presence of the late INa activator, with 3 additions over the course of 7 or 8 minutes. […]

hNav1.5 Peak INa = hNav1.5 Peak INa (Homo sapiens, UniProt Q14524); experiment: Peak INa screening assay (tonic block and use-dependent block); assay type: cell-based
Procedure: The assay uses an HEK293 (human embryonic kidney) cell line heterologously expressing the wild-type human cardiac sodium channel, hNav1.5, purchased from Millipore (Billerica, Mass.). No beta subunits were coexpressed with the Na channel alpha subunit. Cells are maintained with standard tissue culture procedures and stable channel expression is maintained with 400 μg/mL Geneticin in the culture medium. […] Experiments are carried out at 23-25° C. […] Currents through open sodium channels are automatically recorded and stored in the Sophion Bioscience Oracle database (Sophion Bioscience, Copenhagen, Denmark). Analysis is performed using QPatch Assay and database software and data are compiled in Excel. Compound stocks are routinely made by the Gilead Sample Bank in plastic vials to 10 mM in dimethyl sulfoxide (DMSO). […] Stocks are sonicated as necessary. […] Compounds are diluted in extracellular solution to 1 μM in glass vials and then transferred to glass well plates before robotic addition to the cells. […] Good separation between the concentrations of test compound to reduce late and peak INa is beneficial to enable separation of the desired effect to reduce late INa-induced electrical and mechanical dysfunction from the undesired effect to reduce peak INa, which can lead to slowing or block of conduction of electrical excitation in the heart. It is contemplated that the compounds of Formula I avoid significant block of peak INa. […] Analysis of peak INa generally requires correction for rundown before determining the % block of peak current by the tested compound. […] Use-dependent block refers to the accumulation of block with increased frequency of channel activation. […] It is therefore expected that reduction of peak INa by compounds of this disclosure will be greater at high heart rates, such as those during tachyarrhythmias, than at normal heart rates. […] The intracellular solution used for the Peak INa assay is the same as outlined for the Late INa assay (see above). […] After establishing the whole cell recording configuration, channels were stimulated to open with low frequency stimulation (0.1 Hz) for 7 minutes so that the recording can be monitored and the extent to which the recording has stabilized can be assessed. […] Both TB and UDB were analyzed by incorporating rundown correction for the peak INa and UDB as calculated by compensating for the small use-dependent effect of the stimulation protocol on peak INa in the absence of compound.

[2] = at 1 μM, 3 Hz stimulation, holding potential −100 mV, read-out: Peak UDB (use-dependent block of peak INa) % Inhibition
[3] = read-out: Peak TB (tonic block of peak INa) % Inhibition

Chain of wild-type human cardiac sodium channel, hNav1.5 (Q14524 whole entry): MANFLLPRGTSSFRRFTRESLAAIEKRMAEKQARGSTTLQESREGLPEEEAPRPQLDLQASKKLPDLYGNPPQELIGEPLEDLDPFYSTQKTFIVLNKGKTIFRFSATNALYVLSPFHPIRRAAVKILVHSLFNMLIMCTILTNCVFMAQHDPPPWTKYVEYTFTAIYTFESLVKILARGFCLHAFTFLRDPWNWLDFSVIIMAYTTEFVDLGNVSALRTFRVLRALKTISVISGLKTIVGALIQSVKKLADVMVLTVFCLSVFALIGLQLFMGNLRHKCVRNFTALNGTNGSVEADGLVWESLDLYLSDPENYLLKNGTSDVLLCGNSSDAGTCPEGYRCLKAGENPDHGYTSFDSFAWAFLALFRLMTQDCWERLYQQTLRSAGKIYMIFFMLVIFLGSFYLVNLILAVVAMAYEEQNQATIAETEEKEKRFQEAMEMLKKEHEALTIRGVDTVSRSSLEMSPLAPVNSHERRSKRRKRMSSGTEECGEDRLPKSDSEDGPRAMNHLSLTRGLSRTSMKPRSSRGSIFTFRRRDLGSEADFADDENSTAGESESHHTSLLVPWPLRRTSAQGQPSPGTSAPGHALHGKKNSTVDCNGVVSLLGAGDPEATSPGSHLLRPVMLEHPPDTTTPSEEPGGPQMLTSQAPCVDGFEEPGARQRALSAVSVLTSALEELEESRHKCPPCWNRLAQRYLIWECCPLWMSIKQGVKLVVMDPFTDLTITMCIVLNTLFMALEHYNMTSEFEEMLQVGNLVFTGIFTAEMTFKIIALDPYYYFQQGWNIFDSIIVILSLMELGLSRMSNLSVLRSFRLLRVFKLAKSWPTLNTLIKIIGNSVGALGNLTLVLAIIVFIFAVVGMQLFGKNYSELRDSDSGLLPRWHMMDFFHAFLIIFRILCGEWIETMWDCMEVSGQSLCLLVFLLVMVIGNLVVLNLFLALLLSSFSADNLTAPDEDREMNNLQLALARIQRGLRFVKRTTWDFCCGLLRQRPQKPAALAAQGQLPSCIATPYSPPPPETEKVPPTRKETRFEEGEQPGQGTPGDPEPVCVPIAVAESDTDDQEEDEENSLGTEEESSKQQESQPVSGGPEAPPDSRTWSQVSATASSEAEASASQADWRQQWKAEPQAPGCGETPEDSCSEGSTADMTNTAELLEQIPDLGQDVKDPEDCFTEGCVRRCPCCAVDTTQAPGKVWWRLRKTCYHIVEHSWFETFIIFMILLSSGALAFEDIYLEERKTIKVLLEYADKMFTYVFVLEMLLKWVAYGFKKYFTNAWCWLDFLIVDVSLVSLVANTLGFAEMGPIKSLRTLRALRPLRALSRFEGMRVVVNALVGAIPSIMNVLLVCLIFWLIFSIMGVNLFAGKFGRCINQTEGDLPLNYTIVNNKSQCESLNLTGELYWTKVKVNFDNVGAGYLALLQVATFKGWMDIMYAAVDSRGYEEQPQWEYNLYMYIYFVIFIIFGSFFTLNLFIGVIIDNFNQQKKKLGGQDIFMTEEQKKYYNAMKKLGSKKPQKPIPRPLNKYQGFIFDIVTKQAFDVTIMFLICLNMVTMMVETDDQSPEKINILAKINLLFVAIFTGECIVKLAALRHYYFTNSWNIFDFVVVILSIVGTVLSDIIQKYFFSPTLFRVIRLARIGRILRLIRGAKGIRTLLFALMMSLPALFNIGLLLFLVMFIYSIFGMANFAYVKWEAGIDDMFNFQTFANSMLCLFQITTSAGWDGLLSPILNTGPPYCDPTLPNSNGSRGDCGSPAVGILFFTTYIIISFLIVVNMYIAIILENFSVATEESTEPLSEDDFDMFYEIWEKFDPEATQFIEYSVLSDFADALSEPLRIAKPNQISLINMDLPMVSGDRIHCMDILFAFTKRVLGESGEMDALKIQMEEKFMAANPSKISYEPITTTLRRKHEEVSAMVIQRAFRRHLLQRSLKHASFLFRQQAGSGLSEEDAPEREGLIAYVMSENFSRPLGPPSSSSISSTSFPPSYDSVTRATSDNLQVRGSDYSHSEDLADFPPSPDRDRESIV
Chain of hNav1.5 Peak INa (Q14524 whole entry): as above

FC(F)(F)c1ccc(-c2ccc3c(c2)C(NCC2CC2)=NCCO3)cc1 [II-11, N-(cyclopropylmethyl)-7-(4-(trifluoromethyl)phenyl)-2,3-dihydrobenzo[f][1,4]oxazepin-5-amine]
inhibition at 1 µM [1]: 41%
inhibition at 1 µM (hNav1.5 Peak INa; [2]): 31%
inhibition at 1 µM (hNav1.5 Peak INa; [3]): 11%

CN(C)[C@H]1CCN(C2=NCCOc3ccc(-c4ccc(C(F)(F)F)cc4)cc32)C1 [II-15, (S)—N,N-dimethyl-1-(7-(4-(trifluoromethyl)phenyl)-2,3-dihydrobenzo[f][1,4]oxazepin-5-yl)pyrrolidin-3-amine]
inhibition at 1 µM [1]: 49%
inhibition at 1 µM (hNav1.5 Peak INa; [2]): 27%
inhibition at 1 µM (hNav1.5 Peak INa; [3]): 16%

FC(F)(F)c1ccc(-c2ccc3c(c2)C(NCCOc2ccccn2)=NCCO3)cc1 [II-20, N-(2-(pyridin-2-yloxy)ethyl)-7-(4-(trifluoromethyl)phenyl)-2,3-dihydrobenzo[f][1,4]oxazepin-5-amine]
inhibition at 1 µM [1]: 59%
inhibition at 1 µM (hNav1.5 Peak INa; [2]): 89%
inhibition at 1 µM (hNav1.5 Peak INa; [3]): 30%

FC(F)(F)c1ccc(-c2ccc3c(c2)C(NCCOc2ccccc2)=NCCO3)cc1 [II-22, N-(2-phenoxyethyl)-7-(4-(trifluoromethyl)phenyl)-2,3-dihydrobenzo[f][1,4]oxazepin-5-amine]
inhibition at 1 µM [1]: 60%
inhibition at 1 µM (hNav1.5 Peak INa; [2]): 69%
inhibition at 1 µM (hNav1.5 Peak INa; [3]): 19%

CC(C)(C)OC(=O)N1CC[C@H](NC2=NCCOc3ccc(-c4ccc(C(F)(F)F)cc4)cc32)C1 [II-43, (S)-tert-butyl 3-(7-(4-(trifluoromethyl)phenyl)-2,3-dihydrobenzo[f][1,4]oxazepin-5-ylamino)pyrrolidine-1-carboxylate]
inhibition at 1 µM [1]: 46%
inhibition at 1 µM (hNav1.5 Peak INa; [2]): 31%
inhibition at 1 µM (hNav1.5 Peak INa; [3]): 12%

CCN(CC)[C@@H]1CCN(C2=NCCOc3ccc(-c4ccc(C(F)(F)F)cc4)cc32)C1 [II-49, (R)—N,N-diethyl-1-(7-(4-(trifluoromethyl)phenyl)-2,3-dihydrobenzo[f][1,4]oxazepin-5-yl)pyrrolidin-3-amine]
inhibition at 1 µM [1]: 11%

CC(C)(C)OC(=O)N[C@@H]1CCN(C2=NCCOc3ccc(-c4ccc(C(F)(F)F)cc4)cc32)C1 [II-50, (R)-tert-butyl 1-(7-(4-(trifluoromethyl)phenyl)-2,3-dihydrobenzo[f][1,4]oxazepin-5-yl)pyrrolidin-3-ylcarbamate]
inhibition at 1 µM [1]: 22%

CN(C)[C@@H]1CCN(C2=NCCOc3ccc(-c4ccc(C(F)(F)F)cc4)cc32)C1 [II-51, (R)—N,N-dimethyl-1-(7-(4-(trifluoromethyl)phenyl)-2,3-dihydrobenzo[f][1,4]oxazepin-5-yl)pyrrolidin-3-amine]
inhibition at 1 µM [1]: 21%

CN1CCN(C2=NCCOc3ccc(-c4ccc(C(F)(F)F)cc4)cc32)CC1 [II-52, 5-(4-methylpiperazin-1-yl)-7-(4-(trifluoromethyl)phenyl)-2,3-dihydrobenzo[f][1,4]oxazepine]
inhibition at 1 µM [1]: 10%

C[C@H]1CN(C(=O)OC(C)(C)C)CCN1C1=NCCOc2ccc(-c3ccc(C(F)(F)F)cc3)cc21 [II-53, (S)-tert-butyl 3-methyl-4-(7-(4-(trifluoromethyl)phenyl)-2,3-dihydrobenzo[f][1,4]oxazepin-5-yl)piperazine-1-carboxylate]
inhibition at 1 µM [1]: 2%

FC(F)(F)c1ccc(-c2ccc3c(c2)C(N2CCC(N4CCOCC4)C2)=NCCO3)cc1 (centres unmarked) [II-55, 5-(3-morpholinopyrrolidin-1-yl)-7-(4-(trifluoromethyl)phenyl)-2,3-dihydrobenzo[f][1,4]oxazepine]
inhibition at 1 µM [1]: 18%

N[C@H]1CCN(C2=NCCOc3ccc(-c4ccc(C(F)(F)F)cc4)cc32)C1 [II-56, (S)-1-(7-(4-(trifluoromethyl)phenyl)-2,3-dihydrobenzo[f][1,4]oxazepin-5-yl)pyrrolidin-3-amine]
inhibition at 1 µM [1]: 17%

CC(C)(C)OC(=O)NC1CCN(C2=NCCOc3ccc(-c4ccc(C(F)(F)F)cc4)cc32)C1 (centres unmarked) [II-57, tert-butyl 1-(7-(4-(trifluoromethyl)phenyl)-2,3-dihydrobenzo[f][1,4]oxazepin-5-yl)pyrrolidin-3-ylcarbamate]
inhibition at 1 µM [1]: 23%

FC(F)(F)c1ccc(-c2ccc3c(c2)C(N2CCCC2c2ccccn2)=NCCO3)cc1 (centres unmarked) [II-58, 5-(2-(pyridin-2-yl)pyrrolidin-1-yl)-7-(4-(trifluoromethyl)phenyl)-2,3-dihydrobenzo[f][1,4]oxazepine]
inhibition at 1 µM [1]: 18%

FC(F)(F)c1ccc(-c2ccc3c(c2)C(NC2CCNC2)=NCCO3)cc1 (centres unmarked) [II-59, N-(pyrrolidin-3-yl)-7-(4-(trifluoromethyl)phenyl)-2,3-dihydrobenzo[f][1,4]oxazepin-5-amine]
inhibition at 1 µM [1]: 8%

FC(F)(F)c1ccc(-c2ccc3c(c2)C(N2CCC(c4ccccn4)C2)=NCCO3)cc1 (centres unmarked) [II-60, 5-(3-(pyridin-2-yl)pyrrolidin-1-yl)-7-(4-(trifluoromethyl)phenyl)-2,3-dihydrobenzo[f][1,4]oxazepine]
inhibition at 1 µM [1]: 42%
inhibition at 1 µM (hNav1.5 Peak INa; [2]): 25%
inhibition at 1 µM (hNav1.5 Peak INa; [3]): 10%

OC(CN[C@@H]1CCN(C2=NCCOc3ccc(-c4ccc(C(F)(F)F)cc4)cc32)C1)COc1cccc2ccccc12 (stereo partly drawn) [II-61, 1-(naphthalen-1-yloxy)-3-((R)-1-(7-(4-(trifluoromethyl)phenyl)-2,3-dihydrobenzo[f][1,4]oxazepin-5-yl)pyrrolidin-3-ylamino)propan-2-ol]
inhibition at 1 µM [1]: 12%

CC(C)(C)OC(=O)N1CCC(NC2=NCCOc3ccc(-c4ccc(C(F)(F)F)cc4)cc32)C1 (centres unmarked) [II-62, tert-butyl 3-(7-(4-(trifluoromethyl)phenyl)-2,3-dihydrobenzo[f][1,4]oxazepin-5-ylamino)pyrrolidine-1-carboxylate]
inhibition at 1 µM [1]: 43%
inhibition at 1 µM (hNav1.5 Peak INa; [2]): 32%
inhibition at 1 µM (hNav1.5 Peak INa; [3]): 8%

CC(C)(C)OC(=O)N1CC[C@@H](NC2=NCCOc3ccc(-c4ccc(C(F)(F)F)cc4)cc32)C1 [II-63, (R)-tert-butyl 3-(7-(4-(trifluoromethyl)phenyl)-2,3-dihydrobenzo[f][1,4]oxazepin-5-ylamino)pyrrolidine-1-carboxylate]
inhibition at 1 µM [1]: 51%
inhibition at 1 µM (hNav1.5 Peak INa; [2]): 31%
inhibition at 1 µM (hNav1.5 Peak INa; [3]): 12%
